Reference: patent publication US9988381B2, “Five-member-heterocycle fused pyridine compounds, method of producing the same, and use thereof” (SHANGHAI INSTITUTE OF MATERIA MEDICA, CHINESE ACADEMY OF …, priority 2013, dated 2018)
Like-named read-outs stand apart in the source and are kept apart here.

What was measured:
[1] = molecular target: T1, c-Met kinase domain recombinant protein (Homo sapiens, UniProt P08581); test: biochemical; conditions: read-out: Inhibition rate at 10 μM (%)
T1 construct: 50 μL diluted solution of c-Met kinase domain recombinant protein in reaction buffer was added to initiate the reaction
Procedure, shortened: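 ELISA on plates coated with Poly(Glu,Tyr)4:1 (20 μg/mL), kinase reaction with c-Met kinase domain and ATP in HEPES pH 7.4 buffer with MgCl2, MnCl2, Na3VO4 and DTT, 1 h at 37 °C. Phosphotyrosine detected with PY99 and HRP secondary antibody, read at 490 nm; inhibition rate calculated against ATP-free control.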

[2] = molecular target: T1, c-Met kinase domain recombinant protein; test: biochemical; conditions: for inhibition at 0.1 µM: read-out: Average inhibition rate at 0.1 μM (%); for inhibition at 1 µM: read-out: Average inhibition rate at 1 μM (%); for inhibition at 10 µM: read-out: Average inhibition rate at 10 μM (%)
Procedure, shortened: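 ELISA on plates coated with Poly(Glu,Tyr)4:1 (20 μg/mL coating solution). Recombinant c-Met kinase domain reacted with 5 μM ATP in HEPES pH 7.4 with Mg/Mn, vanadate and DTT for 1 hour at 37° C. Phosphotyrosine was detected with PY99 and HRP secondary antibody, read at 490 nm, and IC50 was taken from a four-parameter fit.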

[3] = tested on: BaF3/TPR-Met cell; test: Test III: growth inhibition of engineered BaF3/TPR-Met cells (MTT); format: cell-based; conditions: Mus musculus; for inhibition at 0.2 µM: read-out: Cell proliferation inhibition rate at 200 nM (%); for inhibition at 1 µM: read-out: Cell proliferation inhibition rate at 1 μM (%)
Procedure: Assays on the growth inhibition of the compounds against engineered BaF3/TPR-Met cell (engineered cell line having TPR-Met fusion protein stably expressed in cytoplasm, persistently activated, Met dependent sensitive cell line; BaF3 cell was purchased from DSMZ, German) were detected using microculture tetrozolium (MTT) staining. A certain amount of BaF3/TPR-Met cells at log phase were inoculated into 96-well culture plate at 90 µL per well, incubated overnight and then 10 μL compound at various concentrations or vehicle control (normal saline) was added, each concentration was tested in triplicate. After incubation with compound for 72 hours, the incubation was terminated, MTT solution (5 mg/mL) was added at 20 μL per well, incubated at 37° C. for 4 hours, then 100 μL triplet solution (10% SDS−5% isobutanol−0.01M HCl) was added, incubated overnight at 37° C., OD value was measured at 570 nm. […] Experiments were conducted in duplicates.

T1 sequence (P08581 1078-1345 limits assumed): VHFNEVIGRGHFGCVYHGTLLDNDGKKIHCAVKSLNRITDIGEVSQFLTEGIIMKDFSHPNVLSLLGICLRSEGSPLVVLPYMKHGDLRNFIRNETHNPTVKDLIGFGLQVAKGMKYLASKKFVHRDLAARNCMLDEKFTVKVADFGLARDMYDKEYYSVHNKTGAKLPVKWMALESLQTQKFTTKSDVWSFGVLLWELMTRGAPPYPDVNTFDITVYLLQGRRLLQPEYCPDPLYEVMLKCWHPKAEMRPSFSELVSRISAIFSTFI

| Compound | inhibition at 10 µM [1] [%] | IC50 [2] [nM] | inhibition at 0.1 µM [2] [%] | inhibition at 1 µM [2] [%] | inhibition at 10 µM [2] [%] | inhibition at 0.2 µM ([3]; BaF3, 72 h) [%] | inhibition at 1 µM ([3]; BaF3, 72 h) [%] | inhibition at 1 µM ([3]; BaF3/TPR-Met, 1 μM, 72 hours) [%] | inhibition at 0.2 µM ([3]; BaF3/TPR-Met, 200 nM, 72 hours) [%] |
| --- | --- | --- | --- | --- | --- | --- | --- | --- | --- |
| Cn1cc(-c2cnc3cnn(S(=O)(=O)c4c(Cl)nc5sccn45)c3c2)cn1 [Compound 18] | 64 | 4.2 ± 0.6 | 52.2 | 60.5 | 64 | 1.8 | 94.4 |  |  |
| Cn1cc(-c2cnc3cnn(S(=O)(=O)c4cccc5nonc45)c3c2)cn1 [Compound 20, 1-(benzo[1,2,5]oxadiazole-4-sulfonyl)-6-[(1-methyl)-4-pyrazolyl]-1-H-pyrazolo[4,3-b]pyridine] | 85.7 | 316 ± 141 | 54.9 | 72.6 | 85.7 | 3.2 | 2.9 |  |  |
| Cn1cc(-c2cnc3cnn(S(=O)(=O)c4cnc5ccc(Cl)nn45)c3c2)cn1 [Example 25, 1-[(6-chloro-imidazo[1,2-b]pyridazine)-3-sulfonyl]-6-[(1-methyl)-4-pyrazolyl]-1-H-pyrazolo[4,3-b]pyridine] | 86.2 | 21.3 ± 2.3 | 71.7 | 78 | 86.2 | 36.3 | 88.4 |  |  |
| CC(C)(C)OC(=O)N1CCC(n2cc(-c3cnc4cnn(S(=O)(=O)c5cnc6ccccn56)c4c3)cn2)CC1 [Example 44, 1-(imidazo[1,2-a]pyridine-3-sulfonyl)-6-{{1-[(1-t-butoxycarbonyl)-4-piperidinyl]}-4-pyrazolyl}-1-H-pyrazolo[4,3-b]pyridine] | 87.5 | 6.9 ± 1.9 | 74.6 | 78.6 | 87.5 | 95 | 95.8 |  |  |
| O=S(=O)(c1cnc2ccccn12)n1ncc2ncc(-c3cnn(C4CCNCC4)c3)cc21 [Example 45, 1-(imidazo[1,2-a]pyridine-3-sulfonyl)-6-{[1-(4-piperidinyl)]-4-pyrazolyl}-1-H-pyrazolo[4,3-b]pyridine] | 89.6 | 2.9 ± 0.6 | 73.4 | 76.5 | 89.6 | 27.9 | 95.9 |  |  |
| CC(C)(C)OC(=O)N1CCC(n2cc(-c3cnc4cnn(S(=O)(=O)c5cnn6cccnc56)c4c3)cn2)CC1 [Example 46, 1-(pyrazolo[1,5-a]pyrimidine-3-sulfonyl)-6-{{1-[(1-t-butoxycarbonyl)-4-piperidinyl]}-4-pyrazolyl}-1-H-pyrazolo[4,3-b]pyridine] | 81.3 |  | 55.9 | 65 | 81.3 |  |  | 68 | 33.7 |
| CC(C)(C)OC(=O)N1CCC(n2cc(-c3cnc4cnn(S(=O)(=O)c5cnc6cccnn56)c4c3)cn2)CC1 [Example 49, 1-(imidazo[1,2-b]pyridazine-3-sulfonyl)-6-{{1-[(1-t-butoxycarbonyl)-4-piperidinyl]}-4-pyrazolyl}-1-H-pyrazolo[4,3-b]pyridine] | 76.7 |  | 71 | 74.5 | 76.7 |  |  | 90.5 | 28.4 |

More lines, main results first:

| inhibition at 10 µM [1] [%] | IC50 [2] [nM] | inhibition at 0.1 µM [2] [%] | inhibition at 1 µM [2] [%] | inhibition at 10 µM [2] [%] | Compound | inhibition at 0.2 µM ([3]; BaF3, 72 h) [%] | inhibition at 1 µM ([3]; BaF3, 72 h) [%] | inhibition at 1 µM ([3]; BaF3/TPR-Met, 1 μM, 72 hours) [%] | inhibition at 0.2 µM ([3]; BaF3/TPR-Met, 200 nM, 72 hours) [%] |
| --- | --- | --- | --- | --- | --- | --- | --- | --- | --- |
| 77.9 |  | 59 | 59.7 | 77.9 | Cn1cc(-c2cnc3cnn(S(=O)(=O)c4cnc5cccnn45)c3c2)cn1 [Example 21, 1-(imidazo[1,2-b]pyridazine-3-sulfonyl)-6-[(1-methyl)-4-pyrazolyl]-1-H-pyrazolo[4,3-b]pyridine] |  |  | 42.7 |  |
| 70.5 | 2.5 ± 1.2 | 62.9 | 67.8 | 70.5 | Cn1cc(-c2cnc3cnn(S(=O)(=O)c4cnc5ccc(Cl)cn45)c3c2)cn1 [Example 24, 1-[(6-chloro-imidazo[1,2-a]pyridine)-3-sulfonyl]-6-[(1-methyl)-4-pyrazolyl]-1-H-pyrazolo[4,3-b]pyridine] | 65.9 | 90.9 |  |  |
| 70.6 | 6.7 ± 0.5 | 64.6 | 70.3 | 70.6 | O=S(=O)(c1cnc2ccccn12)n1ncc2ncc(-c3ccccc3)cc21 [Example 28, 1-(imidazo[1,2-a]pyridine-3-sulfonyl)-6-phenyl-1-H-pyrazolo[4,3-b]pyridine] |  | 66.1 |  |  |
| 65.7 | 4.6 ± 1 | 55.7 | 63.8 | 65.7 | O=S(=O)(c1cnc2ccccn12)n1ncc2ncc(-c3ccsc3)cc21 [Example 29, 1-(imidazo[1,2-a]pyridine-3-sulfonyl)-6-(3-thienyl)-1-H-pyrazolo[4,3-b]pyridine] |  | 92.6 |  |  |
| 73.3 | 6.4 ± 2.2 | 60.1 | 63.8 | 73.3 | CN1CCN(C(=O)c2ccc(-c3cnc4cnn(S(=O)(=O)c5cnc6ccccn56)c4c3)cc2)CC1 [Example 37, 1-(imidazo[1,2-a]pyridine-3-sulfonyl)-6-[4-(4-methylpiperazine-1-carbonyl)phenyl]-1-H-pyrazolo[4,3-b]pyridine] | 59.5 | 96.2 |  |  |
| 68.8 | 2.6 ± 0.3 | 58.2 | 65 | 68.8 | O=S(=O)(c1cnc2ccccn12)n1ncc2ncc(-c3ccc(N4CCOCC4)cc3)cc21 [Example 39, 1-(imidazo[1,2-a]pyridine-3-sulfonyl)-6-(4-morpholinylphenyl)-1-H-pyrazolo[4,3-b]pyridine] | 74.4 | 96.3 |  |  |
| 72.3 |  | 64.6 | 66.7 | 72.3 | O=S(=O)(c1cnc2cccnn12)n1ncc2ncc(-c3cnn(C4CCNCC4)c3)cc21 [Example 51] |  |  | 7.7 | 15.3 |
| 65.7 |  | 67.5 | 68.4 | 74.1 | CCN1CCC(n2cc(-c3cnc4cnn(S(=O)(=O)c5cnc6ccccn56)c4c3)cn2)CC1 [Example 53, 1-(imidazo[1,2-a]pyridine-3-sulfonyl)-6-{{1-[(1-ethyl)-4-piperidinyl]}-4-pyrazolyl}-1-H-pyrazolo[4,3-b]pyridine] |  |  | 90.9 |  |
| 70.7 |  | 55.9 | 57.9 | 62.1 | CC(=O)N1CCC(n2cc(-c3cnc4cnn(S(=O)(=O)c5cnc6ccccn56)c4c3)cn2)CC1 [Example 54, 1-(imidazo[1,2-a]pyridine-3-sulfonyl)-6-{{1-[(1-acetyl)-4-piperidinyl]}-4-pyrazolyl}-1-H-pyrazolo[4,3-b]pyridine] |  |  | 89.6 | 88.3 |
